Values after ≈ are worked out from the molar mass of the structure shown. Values joined by “and” are separate entries in the source; they are usually repeats but may differ in a detail not shown here. Equal entries are not always repeated. Where two headings read alike, the source gives them in different places.
How the values were obtained:
[1] = target: T1, Mtb-DprE1 (Mycobacterium tuberculosis, UniProt P9WJF1); assay: biochemical; assay type: biochemical; details: for kinact/Ki: second order rate constant of inactivation, 150 nM Mtb-DprE1, 1 mM FPR, up to 100 min; for dependence of kobs on inhibitor concentration: inhibitor 10 nM to 100 µM; for fold lower kinact/Ki of BOZ than the BTZ counterpart: 4 vs 7, 3 vs 6, 5 vs 9; for fold increase in kinact/Ki as compared to 7: relative to 7
T1 construct: made in house; host or cells: E. coli
T1 sequence (P9WJF1 whole entry): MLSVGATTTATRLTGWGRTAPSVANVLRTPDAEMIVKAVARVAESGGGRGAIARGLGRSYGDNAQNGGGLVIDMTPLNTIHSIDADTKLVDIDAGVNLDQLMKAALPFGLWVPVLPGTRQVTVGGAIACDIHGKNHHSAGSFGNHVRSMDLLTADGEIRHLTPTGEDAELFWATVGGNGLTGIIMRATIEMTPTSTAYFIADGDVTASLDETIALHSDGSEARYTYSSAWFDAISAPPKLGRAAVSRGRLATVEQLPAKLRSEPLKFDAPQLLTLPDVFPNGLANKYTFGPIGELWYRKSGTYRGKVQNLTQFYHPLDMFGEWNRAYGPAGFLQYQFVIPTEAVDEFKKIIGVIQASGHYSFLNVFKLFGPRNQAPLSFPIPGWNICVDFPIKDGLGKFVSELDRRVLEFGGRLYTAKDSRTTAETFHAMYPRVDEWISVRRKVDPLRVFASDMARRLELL

[2] = assay type: physicochemical; details: pH 7.4
Method: Solubility of compounds was measured by Chemi-Luminescent Nitrogen Detection (CLND)[32]. […] of 10 mM DMSO stock solutions of compounds were diluted to […] with phosphate buffered saline (PBS), pH 7.4, equilibrated for 1 hour at room temperature and filtered through Millipore Multiscreen HTS-PCF filter plates (MSSL BPC) prior to analysis by CLND.

[3] = system: M. tuberculosis H37Rv; assay: Minimal inhibitory concentration, M. tuberculosis H37Rv; assay type: cell-based, Mycobacterium tuberculosis; details: for MIC Mtb-H37Rv / MIC / Inhibition of Mtb-H37Rv (MIC): n = 3; for MIC: read-out: MIC Mtb-H37Rv; for fold higher Mtb MIC of BOZ relative to BTZ counterpart: 5 vs 9, 10 vs PBTZ169
Method: MIC values for M. tuberculosis H37Rv and M. vaccae […] were determined as described previously[33],[34].

[4] = system: M. vaccae 10670; assay: Minimal inhibitory concentration, M. vaccae; assay type: cell-based; details: n = 1
[5] = target: T1, Mtb-DprE1; assay: Intact protein mass spectrometry of Mtb-DprE1 after incubation with inhibitor; assay type: binding; details: for mass increase of Mtb-DprE1 (covalent adduct): incubated in the presence of FPR and FAD, LC-MS; for extent of modification of Mtb-DprE1: 20 μM FAD
[6] = system: M. smegmatis; assay: MIC against M. smegmatis (literature); assay type: cell-based
[7] = system: M. smegmatis DprE1; parameters: method as in PMID 22956199; details: cited from earlier work; for IC50: read-out: M. smegmatis DprE1 enzymatic IC50
[8] = system: M. smegmatis; parameters: method as in PMID 22956199; details: cited from earlier work
[9] = IC50, final value of the decrease during the first 100 min of reaction, 100 min of reaction
[10] = IC50, starting value of the decrease during the first 100 min of reaction, early reaction time
[11] = Mycobacterium tuberculosis, H37RV

| SMILES | kinact/Ki [1] [M⁻¹ s⁻¹] | CLND Solubility [2] [µM] | MIC Mtb-H37Rv [3] | MIC [3] [µM] | MIC [4] [µM] | MIC M. vaccae 10670 [4] | dependence of kobs on inhibitor concentration [1] | further results |
| --- | --- | --- | --- | --- | --- | --- | --- | --- |
| O=c1nc(N2CCN(CC3CCCCC3)CC2)oc2c([N+](=O)[O-])cc(C(F)(F)F)cc12 [C00011] | 300 ± 40 | 12 | 0.14 µg/mL (≈ 0.318 µM) | 0.31 (≈ 0.137 µg/mL) | < 0.11 | < 0.05 µg/mL |  |  |
| O=c1nc(N2CCOCC2)oc2c([N+](=O)[O-])cc(C(F)(F)F)cc12 [C00007] | 4.2 ± 0.1 | ≥510 | 1.4 µg/mL (≈ 4.06 µM) | 3.9 (≈ 1.35 µg/mL) | 18 (≈ 6.21 µg/mL) | 6.2 µg/mL (≈ 18 µM) |  |  |
| C[C@H]1COC2(CCN(c3nc(=O)c4cc(C(F)(F)F)cc([N+](=O)[O-])c4s3)CC2)O1 [Compound 12, reference compound] |  |  |  |  |  |  | linear dependence | IC50 ([1]; after 10 min of reaction time, read-out: enzymatic DprE1 IC50): ~1.5 µM; IC50 ([1]; after 100 min of reaction time, read-out: enzymatic DprE1 IC50): ~0.12 µM; IC50 ([1]; equal to half the concentration of enzyme in the assay (150 nM), read-out: limiting IC50 value in theory had the assay been monitored longer): 0.075 µM; change in the mass spectrum of Mtb-DprE1 ([5]; control experiment in the absence of substrate): no change was observed; fold by which reported M. smegmatis and M. tuberculosis MIC values are lower than M. smegmatis DprE1 IC50 ([6]; MIC ref 4, IC50 ref 9): approximately 1000 fold; IC50 [7]: 4.5 µM |
| O=c1nc(N2CCCCC2)sc2c([N+](=O)[O-])cc(C(F)(F)F)cc12 [Compound 7, 8-Nitro-2-(piperidin-1-yl)-6-(trifluoromethyl)-4H-1,3-benzothiazin-4-one] |  |  | low micromolar |  |  | low micromolar | linear dependence |  |
| O=c1nc(N2CCCCC2)oc2c([N+](=O)[O-])cc(C(F)(F)F)cc12 [Compound 4, 8-nitro-2-(piperidin-1-yl)-6-(trifluoromethyl)-4H-1,3-benzoxazin-4-one] |  |  |  |  |  |  | linear dependence | fold lower kinact/Ki of BOZ than the BTZ counterpart [1]: 7 fold |
| O=c1nc(N2CCCCC2)sc2c([N+](=O)[O-])cc(C(F)(F)F)cc12 [C00002] | 39 ± 2 | 370 | 1.2 µg/mL (≈ 3.34 µM) | 3.3 (≈ 1.19 µg/mL) | 1.1 (≈ 0.395 µg/mL) | 0.4 µg/mL (≈ 1.11 µM) |  |  |
| O=c1nc(N2CCCCC2)sc2c([N+](=O)[O-])c(Cl)c(C(F)(F)F)cc12 [Compound 11, 7-Chloro-8-nitro-2-(piperidin-1-yl)-6-(trifluoromethyl)-4H-1,3-benzothiazin-4-one] |  |  |  |  |  |  | hyperbolic dependence | fold increase in kinact/Ki as compared to 7 [1]: 8.7 fold; mass increase of Mtb-DprE1 (covalent adduct) [5]: 378 Da |
| C[C@H]1COC2(CCN(c3nc(=O)c4cc(C(F)(F)F)cc(NO)c4s3)CC2)O1 [BTZ046] |  |  |  |  |  |  |  | fold by which MIC against M. smegmatis is lower than the enzymatic IC50 ([6]; from literature values): approximately 8 fold; time dependent inhibition of M. smegmatis DprE1 [7]: not observed; IC50 [7]: 20 µM; MIC against M. smegmatis [8]: 1000 ng/ml and 2.4 μM |
| CC1COC2(CCN(c3nc(=O)c4cc(C(F)(F)F)cc(N=O)c4s3)CC2)O1 (centres unmarked) [Compound 8, 2-{2-Methyl-1,4-dioxa-8-azaspiro[4.5]decan-8-yl}-8-nitroso-6-(trifluoromethyl)-4H-1,3 benzothiazin-4-one] |  |  |  |  |  |  | linear dependence |  |
| O=c1nc(N2CCCCC2)oc2c([N+](=O)[O-])cc(C(F)(F)F)cc12 [C00006] | 5.6 ± 0.1 | ≥510 | 5.3 µg/mL (≈ 15.4 µM) | 16 (≈ 5.49 µg/mL) | 4.6 (≈ 1.58 µg/mL) | 1.6 µg/mL (≈ 4.66 µM) |  |  |
| O=Nc1cc(C(F)(F)F)cc2c(=O)nc(N3CCCCC3)sc12 [Compound 1, 8-Nitroso-2-(piperidin-1-yl)-6-(trifluoromethyl)-4H-1,3-benzothiazin-4-one] |  |  |  |  |  |  |  | IC50 [1, 9]: 3 µM; IC50 [1, 10]: 5 µM; mass increase of Mtb-DprE1 (covalent adduct) [5]: 343 Da |
| O=c1nc(N2CCOCC2)sc2c([N+](=O)[O-])cc(C(F)(F)F)cc12 [Compound 6, 2-(morpholin-4-yl)-8-nitro-6-(trifluoromethyl)-4H-1,3-benzothiazin-4-one] |  |  |  |  |  |  | hyperbolic dependence |  |
| O=c1nc(N2CCCCC2)sc2c(NO)cc(C(F)(F)F)cc12 [Compound 2] |  |  |  |  |  |  |  | IC50 [1, 9]: 0.8 µM; IC50 [1, 10]: 3.5 µM; mass increase of Mtb-DprE1 species (covalent adduct) ([5]; 10 µM Mtb-DprE1, 20 µM compound, absence of FPR and resazurin): 340–343 Da; time for covalent modification of the enzyme to reach completion ([5]; 20 μM compound, 10 µM Mtb-DprE1, no FPR): approximately one hour; extent of modification of Mtb-DprE1 ([5]; 30 minutes after incubation): partial modification; extent of modification of Mtb-DprE1 ([5]; 60 minutes after incubation): complete modification; mass increase of Mtb-DprE1 (covalent adduct) [5]: 343 Da; MIC [3, 11]: > 80 µM; MIC ([4]; Mycolicibacterium vaccae, 10670): 18.1 µM (≈ 6.25 µg/mL) |
| O=c1nc(N2CCOCC2)sc2c([N+](=O)[O-])cc(C(F)(F)F)cc12 [C00003] | 17 ± 2 | ≥450 | 2.1 µg/mL (≈ 5.81 µM) | 5.9 (≈ 2.13 µg/mL) | 8.6 (≈ 3.11 µg/mL) | 3.1 µg/mL (≈ 8.58 µM) |  |  |
| O=Nc1cc(C(F)(F)F)cc2c(=O)nc(N3CCCCC3)sc12 [C00012] |  | 250 |  |  | 73 (≈ 25.1 µg/mL) | 25 µg/mL (≈ 72.8 µM) |  | Inhibition of Mtb-H37Rv (MIC) ([3]; at 80 μM): 82% Inhibition at 80 μM |
| O=c1nc(N2CCOCC2)oc2c([N+](=O)[O-])cc(C(F)(F)F)cc12 [Compound 3, 2-(morpholin-4-yl)-8-nitro-6-(trifluoromethyl)-4H-1,3-benzoxazin-4-one] |  |  |  |  |  |  | linear dependence | fold lower kinact/Ki of BOZ than the BTZ counterpart [1]: 4 fold |
| O=c1nc(N2CCN(CC3CCCCC3)CC2)sc2c([N+](=O)[O-])cc(C(F)(F)F)cc12 [C00010] |  | 32 | 0.00019 µg/mL (≈ 0.000416 µM) | 0.00042 (≈ 0.000192 µg/mL) |  |  |  |  |
| C[C@H]1COC2(CCN(c3nc(=O)c4cc(C(F)(F)F)cc([N+](=O)[O-])c4s3)CC2)O1 [C00009] | 720 ± 20 | 32 | 0.001 µg/mL (≈ 0.00232 µM) | 0.0023 (≈ 0.000992 µg/mL) | 0.001 (≈ 0.000431 µg/mL) | 0.0004 µg/mL (≈ 0.000927 µM) |  |  |
| C[C@H]1COC2(CCN(c3nc(=O)c4cc(C(F)(F)F)cc(N=O)c4s3)CC2)O1 [C00014] | 39 ± 1 | 210 |  |  | 0.06 (≈ 0.0249 µg/mL) | 0.03 µg/mL (≈ 0.0722 µM) |  | Inhibition of Mtb-H37Rv (MIC) ([3]; at 0.16 μM): 67% Inhibition at 0.16 μM |
| CC1CCCC(C)N1c1nc(=O)c2cc(C(F)(F)F)cc([N+](=O)[O-])c2o1 (centres unmarked) [Compound 5, 2-(2,6-Dimethylpiperidin-1-yl)-8-nitro-6-(trifluoromethyl)-4H-1,3-benzoxazin-4-one] |  |  |  |  |  |  | linear dependence | fold lower kinact/Ki of BOZ than the BTZ counterpart [1]: 31 fold; fold higher Mtb MIC of BOZ relative to BTZ counterpart [3]: 8 fold |
| O=c1nc(N2CCCCC2)sc2c(NO)cc(C(F)(F)F)cc12 [C00013] |  | 10 |  | >80 | 18 (≈ 6.22 µg/mL) | 6.2 µg/mL (≈ 18 µM) |  |  |
| CC1CCCC(C)N1c1nc(=O)c2cc(C(F)(F)F)cc([N+](=O)[O-])c2s1 (centres unmarked) [Compound 9, 2-(2,6-Dimethylpiperidin-1-yl)-8-nitro-6-(trifluoromethyl)-4H-1,3-benzothiazin-4-one] |  |  |  |  |  |  | linear dependence | fold increase in kinact/Ki as compared to 7 [1]: 6 fold |
| O=c1nc(N2CCN(CC3CCCCC3)CC2)oc2c([N+](=O)[O-])cc(C(F)(F)F)cc12 [Compound 10, 2-[4-(cyclohexylmethyl)piperazin-1-yl]-8-nitro-6-(trifluoromethyl)-4H-1,3-benzoxazin-4-one] |  |  |  |  |  |  | hyperbolic dependence | fold higher Mtb MIC of BOZ relative to BTZ counterpart [3]: approximately 700 fold; MIC [3, 11]: 0.3 µM (≈ 0.132 µg/mL) |

Source: publication PMC6128881, “Novel insight into the reaction of nitro, nitroso and hydroxylamino benzothiazinones and of benzoxacinones with Mycobacterium tuberculosis DprE1” (Scientific Reports, 2018)
